Reference: patent US20210122763A1, “OGA INHIBITOR COMPOUNDS” (Janssen Pharmaceutica NV, priority 2018, published 2021)

Columns and labels:
OGA = target: T1, OGA (Homo sapiens, UniProt O60502); experiment: OGA cellular assay (ICC detection of O-GlcNAcylated proteins in HEK293 cells inducible for P301L mutant human Tau); type: cell-based; settings: 6 hours incubation; for Cellular Emax (%) / EC50: HEK293 cells inducible for P301L mutant human Tau; for Cellular Emax (%) / Emax: maximum = Thiamet G 200 uM; for EC50: read-out: Cellular hOGA, pEC50 (converted); for Emax: HEK293, HEK293 cells inducible for P301L mutant human Tau
T1 construct: HEK293 cells inducible for P301L mutant human Tau (isoform 2N4R) were established at Janssen; endogenous in cells; host or cells: HEK293 cells inducible for P301L mutant human Tau (2N4R)
T1 sequence (O60502 1-916): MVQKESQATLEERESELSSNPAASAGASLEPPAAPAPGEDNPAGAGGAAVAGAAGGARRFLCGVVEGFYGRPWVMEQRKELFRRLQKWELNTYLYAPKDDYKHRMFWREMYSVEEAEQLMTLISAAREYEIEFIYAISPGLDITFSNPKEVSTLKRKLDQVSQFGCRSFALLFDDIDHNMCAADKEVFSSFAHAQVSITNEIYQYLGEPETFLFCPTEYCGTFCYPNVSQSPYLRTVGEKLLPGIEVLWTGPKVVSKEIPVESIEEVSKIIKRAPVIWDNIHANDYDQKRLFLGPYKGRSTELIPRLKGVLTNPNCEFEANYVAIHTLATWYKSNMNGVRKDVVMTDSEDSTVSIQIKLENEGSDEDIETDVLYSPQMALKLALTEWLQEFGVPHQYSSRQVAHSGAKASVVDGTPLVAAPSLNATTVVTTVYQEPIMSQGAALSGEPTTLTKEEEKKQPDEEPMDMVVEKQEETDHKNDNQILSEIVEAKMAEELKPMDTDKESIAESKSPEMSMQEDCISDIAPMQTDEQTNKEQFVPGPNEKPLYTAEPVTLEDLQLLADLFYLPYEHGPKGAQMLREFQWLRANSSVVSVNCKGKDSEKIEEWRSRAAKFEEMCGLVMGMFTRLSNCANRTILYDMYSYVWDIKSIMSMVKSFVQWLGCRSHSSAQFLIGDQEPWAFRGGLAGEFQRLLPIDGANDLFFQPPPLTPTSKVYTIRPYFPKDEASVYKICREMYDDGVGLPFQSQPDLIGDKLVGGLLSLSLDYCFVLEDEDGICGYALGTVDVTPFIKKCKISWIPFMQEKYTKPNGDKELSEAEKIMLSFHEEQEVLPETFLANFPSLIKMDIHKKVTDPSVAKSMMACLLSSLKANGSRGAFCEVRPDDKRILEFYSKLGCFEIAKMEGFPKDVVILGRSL
Experimental: HEK293 cells inducible for P301L mutant human Tau (isoform 2N4R) were established at Janssen. Thiamet-G was used for both plate validation (high control) and as reference compound (reference EC50 assay validation). OGA inhibition is evaluated through the immunocytochemical (ICC) detection of O-GlcNAcylated proteins by the use of a monoclonal antibody (CTD110.6; Cell Signaling, #9875) detecting 0-GlcNAcylated residues as previously described (Dorfmueller et al. 2010 Chemistry & biology, 17:1250). Inhibition of OGA will result in an increase of 0-GlcNAcylated protein levels resulting in an increased signal in the experiment. Cell nuclei are stained with Hoechst to give a cell culture quality control and a rough estimate of immediate compounds toxicity, if any. ICC pictures are imaged with a Perkin Elmer Opera Phenix plate microscope and quantified with the provided software Perkin Elmer Harmony 4.1.
Cells were propagated in DMEM high Glucose (Sigma, #D5796) following standard procedures. 2 days before the cell assay cells are split, counted and seeded in Poly-D-Lysine (PDL) coated 96-wells (Greiner, #655946) plate at a cell density of 12,000 cells per cm^2 (4,000 cells per well) in 100p of Assay Medium (Low Glucose medium is used to reduce basal levels of GlcNAcylation) (Park et al. 2014 The Journal of biological chemistry 289:13519). At the day of compound test medium from assay plates was removed and replenished with 90 μl of fresh Assay Medium. 10 μl of compounds at a 10 fold final concentration were added to the wells. Plates were centrifuged shortly before incubation in the cell incubator for 6 hours. DMSO concentration was set to 0.2%. Medium is discarded by applying vacuum. For staining of cells medium was removed and cells washed once with 100 μl D-PBS (Sigma, #D8537). From next step onwards unless other stated assay volume was always 50p and incubation was performed without agitation and at room temperature. Cells were fixed in 50 μl of a 4% paraformaldehyde (PFA, Alpha aesar, #043368) PBS solution for 15 minutes at room temperature. […] Before analysis samples were washed 2 times manually for 5 minutes in ICC base buffer.
Imaging is performed using Perkin Elmer Phenix Opera using a water 20× objective and recording 9 fields per well. Intensity readout at 488 nm is used as a measure of O-GlcNAcylation level of total proteins in wells. To assess potential toxicity of compounds nuclei were counted using the Hoechst staining. IC50-values are calculated using parametric non-linear regression model fitting. As a maximum inhibition Thiamet G at a 200 uM concentration is present on each plate. In addition, a concentration response of Thiamet G is calculated on each plate.

[1] = target: T2, recombinant human Meningioma Expressed Antigen 5 (MGEA5), also referred to as O-GlcNAcase (OGA) (Homo sapiens, UniProt O60502); experiment: OGA biochemical assay (inhibition of FM-GlcNAc hydrolysis, fluorescence); settings: for IC50: read-out: Enzymatic hOGA, pIC50 (converted); for Emax: read-out: Enzymatic Emax (%)
T2 construct: Full length OGA enzyme was purchased at OriGene (cat #TP322411); purchased OriGene TP322411
T2 sequence (O60502 1-916): T1 sequence (O60502 1-916)
Excerpt: The assay is based on the inhibition of the hydrolysis of fluorescein mono-B-D-N-Acetyl-Glucosamine (FM-GcNAc) (Mariappa et al. 2015, Biochem J470:255) by the recombinant human Meningioma Expressed Antigen 5 (MGEA5), also referred to as O-GlcNAcase (OGA). The hydrolysis FM-GlcNAc (Marker Gene technologies, cat #M1485) results in the formation of B-D-N-glucosamineacetate and fluorescein. The fluorescence of the latter can be measured at excitation wavelength 485 nm and emission wavelength 538 nm. An increase in enzyme activity results in anincrease in fluorescence signal. Full length OGA enzyme was purchased at OriGene (cat #TP322411). The enzyme was stored in 25 mM Tris.HCl, pH 7.3, 100 mM glycine, 10% glycerol at −20° C. Thiamet G and GlcNAcStatin were tested as reference compounds (Yuzwa et al. 2008 Nature Chemical Biology 4:483; Yuzwa et al. 2012 Nature Chemical Biology 8:393). The assay was performed in 200 mM Citrate/phosphate buffer supplemented with 0.005% Tween-20. 35.6 g Na2HPO4 2H2O (Sigma, #C0759) were dissolved in 1 L water to obtain a 200 mM solution. 19.2 g citric acid (Merck, #1.06580) was dissolved in 1 L water to obtain a 100 mM solution. pH of the sodiumphosphate solution was adjusted with the citric acid solution to 7.2. The buffer to stop the reaction consists of a 500 mM Carbonate buffer, pH 11.0. 734 mg FM-GlcNAc were dissolved in 5.48 mL DMSO to obtain a 250 mM solution and was stored at −20° C. OGA was used at a 2 nM concentration and FM-GcNAc at a 100 uM final concentration. Dilutions were prepared in assay buffer.
50 nl of a compound dissolved in DMSO was dispensed on Black Proxiplate™ 384 Plus Assay plates (Perkin Elmer, #6008269) and 3 μl fl-OGA enzyme mix added subsequently. Plates were pre-incubated for 60 min at room temperature and then 2 μl FM-GlcNAc substrate mix added.
Plates were briefly centrifuged for 1 min at 1000 rpm and incubate at room temperature for 6 h. To stop the reaction 5 μl STOP buffer were added and plates centrifuge again 1 min at 1000 rpm. Fluorescence was quantified in the Thermo Scientific Fluoroskan Ascent or the PerkinElmer EnVision with excitation wavelength 485 nm and emission wavelength 538 nm.
For analysis a best-fit curve is fitted by a minimum sum of squares method. From this an IC50 value and Hill coefficient was obtained. High control (no inhibitor) and low control (saturating concentrations of standard inhibitor) were used to define the minimum and maximum values.

Cellular Emax (%) (OGA) | EC50 (OGA) | Enzymatic Emax (%) [1] | IC50 [1] | Emax (OGA) | Emax [1] | SMILES
−14% | > 1000 nM | 29% | > 10000 nM |  |  | Cc1cc(OC2CCN(C(C)c3ccc4c(n3)OCCO4)CC2)cc(C)n1 (single isomer, unassigned) [Compound 2]
83% | 251 nM | 103% | 50.1 nM |  |  | Cc1cc(OC2CCN(C(C)c3ccc4c(n3)OCCO4)CC2)cc(C)n1 (single isomer, unassigned) [Compound 3]
 | 631 nM |  | 50.1 nM | 73% | 100% | Cc1cc(OC2CCN(C(C)c3ccc4c(n3)OCCO4)CC2)nc(C)n1 (single isomer, unassigned) [Compound 10]
 |  | 84% | 2510 nM |  |  | Cc1cc(OC2CCN(C(C)c3ccc4c(n3)OCCO4)CC2)nc(C)n1 (single isomer, unassigned) [Compound 11]
−8% | > 1000 nM | 59% | 3980 nM |  |  | COc1cc(OC2CCN(C(C)c3ccc4sc(C)nc4n3)CC2)cc(C)n1 (single isomer, unassigned) [Compound 23]
72% | 100 nM | 98% | 20 nM |  |  | COc1cc(OC2CCN(C(C)c3ccc4sc(C)nc4n3)CC2)cc(C)n1 (single isomer, unassigned) [Compound 24]
−8% | > 1000 nM | 55% | 7940 nM |  |  | COc1cc(OC2CCN(C(C)c3ccc4c(n3)OCCO4)CC2)cc(C)n1 (single isomer, unassigned) [Compound 53]
83% | 126 nM | 100% | 12.6 nM |  |  | COc1cc(OC2CCN(C(C)c3ccc4c(n3)OCCO4)CC2)cc(C)n1 (single isomer, unassigned) [Compound 54]
 | > 1000 nM |  | 200 nM | 14% | 97% | Cc1cc(OC2CCN([C@H](C)c3nc4c(cc3F)OCCO4)CC2)nc(C)n1 (single isomer, unassigned) [Compound 55]
 | 79.4 nM |  | 15.8 nM | 87% | 95% | Cc1cc(OC2CCN([C@H](C)c3ccc4c(n3)OCC4)CC2)cc(C)n1 (single isomer, unassigned) [Compound 61]
 | > 1000 nM |  | 1000 nM | 6% | 90% | Cc1cc(OC2CCN([C@@H](C)c3ccc4c(n3)OCC4)CC2)cc(C)n1 (single isomer, unassigned) [Compound 62]
 | > 1000 nM |  | 631 nM | 7% | 96% | COc1cc(OC2CCN([C@H](C)c3nc4nc(C)sc4cc3F)CC2)cc(C)n1 (single isomer, unassigned) [Compound 80]
 | 31.6 nM |  | 1.58 nM | 87% | 93% | COc1cc(OC2CCN([C@@H](C)c3nc4nc(C)sc4cc3F)CC2)cc(C)n1 (single isomer, unassigned) [Compound 81]
 | > 1000 nM |  | 631 nM | 18% | 97% | Cc1cc(OC2CCN([C@H](C)c3nc4nc(C)sc4cc3F)CC2)cc(C)n1 (single isomer, unassigned) [Compound 82]
 | > 1000 nM |  | > 10000 nM | -3% | -11% | C[C@H](c1nc2c(cc1F)OCCO2)N1CCC(Oc2ccc(C#N)nn2)CC1 (single isomer, unassigned) [Compound 85]
 | 100 nM |  | 15.8 nM | 100% | 94% | C[C@@H](c1nc2c(cc1F)OCCO2)N1CCC(Oc2ccc(C#N)nn2)CC1 (single isomer, unassigned) [Compound 86]
 | 631 nM |  | 126 nM | 48% | 95% | C[C@@H](c1ccc2c(n1)OCCO2)N1CCC(Oc2ccc(C(N)=O)nn2)CC1 (single isomer, unassigned) [Compound 106]
 | > 1000 nM |  | 1580 nM | 8% | 86% | Cc1cc(OC2CCN([C@@H](C)c3nc4c(cc3F)CCO4)CC2)cc(C)n1 (single isomer, unassigned) [Compound 145]
 |  |  | 63.1 nM |  | 101% | Cc1cc(OC2CCN(C(C)c3ccc4c(n3)OCCO4)CC2)cc(C)n1 (centres unmarked) [Compound 1]
 |  |  | 100 nM |  | 102% | Cc1cc(OC2CCN(C(C)c3ccc4c(n3)OCCO4)CC2)nc(C)n1 (centres unmarked) [Compound 9]
